What all share (test): Eurofins kinase selectivity profile against 380 other human recombinant kinases (Table S2)
What all share (format): biochemical

Experiment [1] concerns the target T1, 380 human recombinant protein kinases (Homo sapiens, UniProt Q9UQ07).
T1 construct: purchased Eurofins (Celle Lévescault)
T1 sequence (Q9UQ07 1-419): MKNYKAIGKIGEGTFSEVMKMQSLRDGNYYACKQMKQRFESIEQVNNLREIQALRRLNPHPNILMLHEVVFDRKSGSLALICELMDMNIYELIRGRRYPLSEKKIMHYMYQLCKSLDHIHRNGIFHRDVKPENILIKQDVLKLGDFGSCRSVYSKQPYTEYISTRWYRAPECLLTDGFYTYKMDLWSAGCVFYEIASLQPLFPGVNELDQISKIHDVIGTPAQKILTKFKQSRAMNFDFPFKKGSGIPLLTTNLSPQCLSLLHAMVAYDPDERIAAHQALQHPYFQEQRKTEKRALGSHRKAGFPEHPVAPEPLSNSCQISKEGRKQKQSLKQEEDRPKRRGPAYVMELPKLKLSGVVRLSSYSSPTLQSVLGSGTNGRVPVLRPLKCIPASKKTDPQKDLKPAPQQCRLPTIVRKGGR
Particulars: MOK(h), read-out: Inhibition rate. In short, it runs like this: (§1)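 The inhibitor was sent to a contract lab and screened at various concentrations against 380 human recombinant protein kinases. This served as a counter-screen for MK2 specificity.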

In experiment [2] the target is T2, 380 human recombinant protein kinases (Homo sapiens, UniProt Q8IU85).
T2 construct: purchased Eurofins (Celle Lévescault)
T2 sequence (Q8IU85 whole entry): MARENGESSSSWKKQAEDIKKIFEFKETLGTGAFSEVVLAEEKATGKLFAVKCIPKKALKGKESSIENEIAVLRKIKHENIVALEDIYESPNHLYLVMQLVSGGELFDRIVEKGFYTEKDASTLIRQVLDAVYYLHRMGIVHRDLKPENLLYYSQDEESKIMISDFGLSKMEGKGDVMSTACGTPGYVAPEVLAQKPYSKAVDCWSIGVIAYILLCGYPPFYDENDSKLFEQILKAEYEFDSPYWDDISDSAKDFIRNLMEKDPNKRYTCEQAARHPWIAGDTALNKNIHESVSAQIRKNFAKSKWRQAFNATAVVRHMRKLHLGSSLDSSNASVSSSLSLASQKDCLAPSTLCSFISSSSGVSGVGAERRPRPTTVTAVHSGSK
To be noted: CaMKIδ(h), read-out: Inhibition rate. In short, it runs like this:
as §1

In experiment [3] the target is T3, 380 human recombinant protein kinases (Homo sapiens, UniProt Q9UPZ9).
T3 construct: purchased Eurofins (Celle Lévescault)
T3 sequence (Q9UPZ9 1-632): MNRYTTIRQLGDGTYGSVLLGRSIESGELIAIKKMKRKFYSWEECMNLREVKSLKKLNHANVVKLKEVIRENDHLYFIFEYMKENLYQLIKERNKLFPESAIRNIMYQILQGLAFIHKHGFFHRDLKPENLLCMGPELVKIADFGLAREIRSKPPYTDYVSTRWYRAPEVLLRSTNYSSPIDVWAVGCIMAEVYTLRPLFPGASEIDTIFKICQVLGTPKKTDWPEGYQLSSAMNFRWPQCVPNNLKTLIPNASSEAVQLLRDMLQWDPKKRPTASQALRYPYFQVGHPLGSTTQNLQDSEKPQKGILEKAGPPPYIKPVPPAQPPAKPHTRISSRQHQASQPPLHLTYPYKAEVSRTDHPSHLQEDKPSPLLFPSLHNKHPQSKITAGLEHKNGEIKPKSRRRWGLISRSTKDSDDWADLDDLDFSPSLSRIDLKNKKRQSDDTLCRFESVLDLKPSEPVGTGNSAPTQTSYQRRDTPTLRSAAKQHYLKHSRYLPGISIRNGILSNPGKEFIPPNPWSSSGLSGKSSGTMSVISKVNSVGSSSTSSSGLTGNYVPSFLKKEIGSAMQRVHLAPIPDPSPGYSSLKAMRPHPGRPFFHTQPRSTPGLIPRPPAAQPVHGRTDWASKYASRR
To be noted: ICK(h), read-out: Inhibition rate. In outline: as §1

Experiment [4] concerns the target T4, 380 human recombinant protein kinases (Homo sapiens, UniProt P04626).
T4 construct: purchased Eurofins (Celle Lévescault)
To be noted: ErbB2(h), read-out: Inhibition rate. In short, it runs like this:
as §1

Experiment [5] has as its target T5, 380 human recombinant protein kinases (Homo sapiens, UniProt Q99755).
T5 construct: purchased Eurofins (Celle Lévescault)
Particulars: PIP5K1α(h), read-out: Inhibition rate (%). In short, it runs like this: as §1

The target of experiment [6] is T6, 380 human recombinant protein kinases (Homo sapiens, UniProt P35916).
T6 construct: purchased Eurofins (Celle Lévescault)
T6 sequence (P35916 25-1363): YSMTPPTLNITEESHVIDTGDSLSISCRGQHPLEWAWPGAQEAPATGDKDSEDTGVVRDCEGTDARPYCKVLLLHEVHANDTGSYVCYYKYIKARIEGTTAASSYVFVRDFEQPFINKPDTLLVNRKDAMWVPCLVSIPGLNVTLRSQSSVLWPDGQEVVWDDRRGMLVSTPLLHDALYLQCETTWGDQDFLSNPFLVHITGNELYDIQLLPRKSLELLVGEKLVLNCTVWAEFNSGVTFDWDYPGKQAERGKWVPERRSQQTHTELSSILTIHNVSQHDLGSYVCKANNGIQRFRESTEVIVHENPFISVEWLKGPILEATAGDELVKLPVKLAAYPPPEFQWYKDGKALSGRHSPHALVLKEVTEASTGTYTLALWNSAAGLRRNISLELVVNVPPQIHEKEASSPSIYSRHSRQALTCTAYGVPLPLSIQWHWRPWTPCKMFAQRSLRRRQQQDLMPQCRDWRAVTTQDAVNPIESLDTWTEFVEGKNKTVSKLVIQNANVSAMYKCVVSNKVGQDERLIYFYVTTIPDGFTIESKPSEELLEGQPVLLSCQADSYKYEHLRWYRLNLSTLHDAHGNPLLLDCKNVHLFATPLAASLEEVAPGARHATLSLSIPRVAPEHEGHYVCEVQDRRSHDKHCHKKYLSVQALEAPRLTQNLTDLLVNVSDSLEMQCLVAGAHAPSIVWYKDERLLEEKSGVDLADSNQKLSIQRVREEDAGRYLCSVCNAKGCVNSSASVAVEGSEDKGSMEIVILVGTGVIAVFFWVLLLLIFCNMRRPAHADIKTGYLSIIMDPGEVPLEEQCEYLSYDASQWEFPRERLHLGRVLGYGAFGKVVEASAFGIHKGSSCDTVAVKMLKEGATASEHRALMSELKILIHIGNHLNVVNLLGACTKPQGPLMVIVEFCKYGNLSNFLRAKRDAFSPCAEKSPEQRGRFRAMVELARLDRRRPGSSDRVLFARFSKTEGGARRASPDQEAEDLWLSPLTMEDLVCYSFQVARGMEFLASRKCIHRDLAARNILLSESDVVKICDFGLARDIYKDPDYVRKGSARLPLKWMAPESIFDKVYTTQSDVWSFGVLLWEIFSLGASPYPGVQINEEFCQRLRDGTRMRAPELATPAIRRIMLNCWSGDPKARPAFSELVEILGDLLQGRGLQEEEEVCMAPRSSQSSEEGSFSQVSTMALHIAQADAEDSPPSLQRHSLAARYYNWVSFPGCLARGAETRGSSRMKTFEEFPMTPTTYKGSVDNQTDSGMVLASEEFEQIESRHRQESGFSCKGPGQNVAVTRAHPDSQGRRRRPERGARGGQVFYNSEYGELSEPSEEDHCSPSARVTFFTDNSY
Particulars: Flt4(h), read-out: Inhibition rate. In short, it runs like this:
as §1

In experiment [7] the target is T7, 380 human recombinant protein kinases (Homo sapiens, UniProt P30291).
T7 construct: purchased Eurofins (Celle Lévescault)
T7 sequence (P30291 whole entry): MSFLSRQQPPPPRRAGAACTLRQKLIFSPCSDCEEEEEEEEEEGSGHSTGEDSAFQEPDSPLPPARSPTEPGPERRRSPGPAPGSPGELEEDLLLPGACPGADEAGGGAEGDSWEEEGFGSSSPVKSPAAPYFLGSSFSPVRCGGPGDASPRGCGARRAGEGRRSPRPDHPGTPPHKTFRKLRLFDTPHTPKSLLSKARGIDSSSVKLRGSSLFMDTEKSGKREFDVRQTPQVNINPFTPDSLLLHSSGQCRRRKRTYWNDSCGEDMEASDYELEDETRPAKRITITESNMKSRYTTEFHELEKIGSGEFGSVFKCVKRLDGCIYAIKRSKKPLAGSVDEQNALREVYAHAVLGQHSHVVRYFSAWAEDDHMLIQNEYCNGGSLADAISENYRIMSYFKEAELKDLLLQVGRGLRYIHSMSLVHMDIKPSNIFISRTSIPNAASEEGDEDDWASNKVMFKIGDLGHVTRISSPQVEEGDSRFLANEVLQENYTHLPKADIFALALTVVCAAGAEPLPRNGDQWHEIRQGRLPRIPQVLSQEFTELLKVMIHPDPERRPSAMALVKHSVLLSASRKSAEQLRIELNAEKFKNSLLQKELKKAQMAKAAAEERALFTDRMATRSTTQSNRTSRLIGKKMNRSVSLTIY
Particulars: Wee1(h), read-out: Inhibition rate (%). In short, it runs like this:
as §1

Each structure is given as a SMILES string.

One compound from publication PMC11233931, “Remodeling tumor‐associated macrophage for anti‐cancer effects by rational design of irreversible inhibition of mitogen‐activated protein kinase‐activated protein kinase 2” (MedComm, 2024) can be followed below.

T5 sequence (Q99755 whole entry): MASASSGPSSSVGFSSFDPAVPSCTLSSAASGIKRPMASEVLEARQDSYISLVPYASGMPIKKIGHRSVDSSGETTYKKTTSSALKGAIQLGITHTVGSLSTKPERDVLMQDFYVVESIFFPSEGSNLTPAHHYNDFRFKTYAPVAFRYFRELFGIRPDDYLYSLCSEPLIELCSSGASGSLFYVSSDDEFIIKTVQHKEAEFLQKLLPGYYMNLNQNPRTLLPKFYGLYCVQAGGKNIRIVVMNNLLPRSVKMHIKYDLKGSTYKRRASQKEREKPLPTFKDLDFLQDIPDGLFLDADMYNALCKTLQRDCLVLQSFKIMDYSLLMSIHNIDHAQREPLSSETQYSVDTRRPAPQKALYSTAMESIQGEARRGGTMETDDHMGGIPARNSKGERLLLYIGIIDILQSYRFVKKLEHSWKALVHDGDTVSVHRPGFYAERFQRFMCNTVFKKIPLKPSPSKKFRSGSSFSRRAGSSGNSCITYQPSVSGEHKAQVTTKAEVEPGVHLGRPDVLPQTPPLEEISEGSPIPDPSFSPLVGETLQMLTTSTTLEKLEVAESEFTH
T4 sequence (P04626 23-1255): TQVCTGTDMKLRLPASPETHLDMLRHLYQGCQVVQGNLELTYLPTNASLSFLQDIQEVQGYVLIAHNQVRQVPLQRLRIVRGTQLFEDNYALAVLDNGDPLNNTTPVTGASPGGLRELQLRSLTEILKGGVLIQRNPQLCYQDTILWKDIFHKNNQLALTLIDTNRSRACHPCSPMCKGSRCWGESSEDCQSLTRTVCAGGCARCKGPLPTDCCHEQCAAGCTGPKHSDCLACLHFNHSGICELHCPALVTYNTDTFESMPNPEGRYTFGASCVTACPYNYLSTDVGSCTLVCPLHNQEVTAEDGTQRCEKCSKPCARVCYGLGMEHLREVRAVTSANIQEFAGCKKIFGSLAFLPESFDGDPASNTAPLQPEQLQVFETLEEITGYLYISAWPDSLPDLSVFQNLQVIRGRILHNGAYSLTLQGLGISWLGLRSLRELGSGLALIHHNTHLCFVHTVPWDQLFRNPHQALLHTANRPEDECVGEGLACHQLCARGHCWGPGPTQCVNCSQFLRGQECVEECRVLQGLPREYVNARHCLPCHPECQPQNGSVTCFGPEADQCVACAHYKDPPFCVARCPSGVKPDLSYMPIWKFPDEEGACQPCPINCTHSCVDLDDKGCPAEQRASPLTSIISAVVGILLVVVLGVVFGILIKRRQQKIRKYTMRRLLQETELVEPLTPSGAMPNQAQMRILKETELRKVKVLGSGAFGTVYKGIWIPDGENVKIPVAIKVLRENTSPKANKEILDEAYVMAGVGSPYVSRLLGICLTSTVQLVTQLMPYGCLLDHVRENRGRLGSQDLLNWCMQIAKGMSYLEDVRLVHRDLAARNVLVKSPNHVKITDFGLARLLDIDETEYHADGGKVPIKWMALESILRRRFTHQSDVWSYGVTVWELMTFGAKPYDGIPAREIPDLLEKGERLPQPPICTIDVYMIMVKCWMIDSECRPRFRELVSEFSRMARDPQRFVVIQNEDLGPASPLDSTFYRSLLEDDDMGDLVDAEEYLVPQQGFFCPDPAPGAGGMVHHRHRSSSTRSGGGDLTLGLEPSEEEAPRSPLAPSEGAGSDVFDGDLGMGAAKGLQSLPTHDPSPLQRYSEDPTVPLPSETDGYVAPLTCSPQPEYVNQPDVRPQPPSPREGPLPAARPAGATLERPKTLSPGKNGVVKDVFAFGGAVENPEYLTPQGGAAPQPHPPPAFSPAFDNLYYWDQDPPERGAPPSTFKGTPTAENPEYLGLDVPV

On to `C=CC(=O)Nc1cc(-c2cc(-c3cc4c([nH]3)CCNC4=O)ccn2)ccc1OC(F)(F)F` [compound 11], for which the inhibition at 0.01 µM in experiment [1] (10 nM) is 11%; in experiment [2] (10 nM) it was -3%; in experiment [3] (10 nM), 3%; in experiment [4] (10 nM), 10%; in experiment [5] (10 nM), -4%; in experiment [6] (10 nM) it was -8%. In addition, in experiment [7] (10 nM), the inhibition at 0.01 µM was -11%. Moreover, the inhibition at 0.1 µM in experiment [1] (100 nM) is 7%; in experiment [2] (100 nM), -6%; in experiment [3] (100 nM), 18%; in experiment [4] (100 nM), 5%; in experiment [5] (100 nM), -3%; in experiment [6] (100 nM), 5%. Besides, the inhibition at 0.1 µM in experiment [7] (100 nM) was -11%. The inhibition at 1 µM in experiment [1] (1000 nM) was 2%; in experiment [2] (1000 nM), 1%; in experiment [3] (1000 nM), 8%; in experiment [4] (1000 nM), 1%; in experiment [5] (1000 nM), -2%; in experiment [6] (1000 nM) it was 43%. Further, the inhibition at 1 µM in experiment [7] (1000 nM) is -4%.

In general, inhibition refers to the change of the read-out against control, counted positive when it falls.
